For orientation: IC50 means the concentration at which inhibition is half-maximal. Low values mean higher potency, high ones lower potency.

The target in this experiment is Coagulation factor X (Homo sapiens, UniProt P00742). Description: Inhibition of human factor Xa using Z-D-Arg-Gly-Arg-pNA.2HCl as substrate preincubated for 15 mins followed by substrate addition by UV absorption analysis.
Coagulation factor X, sequence (P00742 41-179 limits assumed): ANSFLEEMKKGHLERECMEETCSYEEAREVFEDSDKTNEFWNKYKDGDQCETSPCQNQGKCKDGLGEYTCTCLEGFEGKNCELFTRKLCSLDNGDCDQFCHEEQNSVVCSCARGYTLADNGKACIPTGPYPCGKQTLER
Coagulation factor X, sequence (P00742 235-488 limits assumed): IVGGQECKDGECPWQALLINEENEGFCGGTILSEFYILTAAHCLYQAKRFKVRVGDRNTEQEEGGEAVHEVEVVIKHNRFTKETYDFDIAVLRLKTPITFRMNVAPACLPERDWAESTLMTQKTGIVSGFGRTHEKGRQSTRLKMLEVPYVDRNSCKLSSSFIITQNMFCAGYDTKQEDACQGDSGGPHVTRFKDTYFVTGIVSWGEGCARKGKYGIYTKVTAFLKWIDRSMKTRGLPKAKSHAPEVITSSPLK
Molecule `CC1(C)OC[C@@H]([C@]2(C)C=C3CC[C@@H]4[C@](C)(CO)C[C@@H](O)C[C@@]4(C)[C@@H]3CC2)O1` displayed an IC50 of 7.2 µM.

For `C[C@@]1(CO)C[C@@H](O)C[C@@]2(C)[C@@H]3CC[C@](C)(C(=O)O)C=C3CC[C@H]12`, 0.22 µM corresponded to half-maximal inhibition (IC50).

The molecule `C[C@@]1(CO)C[C@@H](O)C[C@]2(C)[C@@H]1CC[C@@]13O[C@H](CO)[C@@](C)(CC[C@@H]21)[C@H]3Br` displayed an IC50 of 7.9 µM.

Take `C[C@@]1(CO)C[C@@H](O)C[C@@]2(C)[C@@H]3CC[C@](C)([C@@H](O)CO)C=C3CC[C@H]12` [KIRENOL]: half-maximal inhibition (IC50) was put at 2.5 µM.

Take `C[C@]12CC[C@@H]3[C@](CC[C@@H]4[C@](C)(CO)C[C@@H](O)C[C@]43C)(C1)OC2`: half-maximal inhibition (IC50) required 7.4 µM.

`CC1(C)OC[C@@H]([C@@]2(C)CC[C@@H]3C4(CC[C@@H]5[C@](C)(CO)C[C@@H](O)C[C@@]35C)OC42)O1` (some centres not stated): the IC50 stood at 18.5 µM.

Molecule `C[C@@]1(CO)C[C@@H](O)C[C@]2(C)[C@@H]1CC[C@@]13O[C@@H](CO)[C@@](C)(CC[C@@H]21)[C@H]3Br` came in with an IC50 of 4.7 µM.

In turn, `C[C@]12CC[C@@H]3[C@](CC[C@@H]4[C@](C)(CO)C[C@@H](O)C[C@]43C)(C1)OC2=O` yielded an IC50 of 1.7 µM.

`C[C@]12CC[C@@H]3[C@](CC[C@@H]4[C@](C)(CO)C[C@@H](O)C[C@]43C)(C1)O[C@H]2CO` showed an IC50 of 6.1 µM.

`C[C@@]1(CO)C[C@@H](O)C[C@@]2(C)C3=C(CC[C@H]12)[C@H]1OC[C@H](O)[C@@]1(C)CC3` yielded a half-inhibitory concentration (IC50) of 27.9 µM.

Molecule `C[C@@]1(CO)C[C@@H](O)C[C@@]2(C)[C@@H]3CC[C@@]4(C)[C@H](OC[C@@H]4O)C3=CC[C@H]12` gave an IC50 of 17.8 µM.

Consider `C[C@@]1(CO)C=C2CC[C@@H]3[C@](C)(CO)C[C@@H](O)C[C@@]3(C)[C@@H]2CC1`, for which 0.96 µM corresponded to half-maximal inhibition (IC50).

(Values after ChEMBL document CHEMBL4400553, “Semisynthesis of epoxy-pimarane diterpenoids from kirenol and their FXa inhibition activities” (Bioorg Med Chem, 2019).)
